Experimental data published in patent US10047051B2, “Substituted pyridines and method of use” (AbbVie S.á{acute over (.)}r.l., priority 2015, dated 2018).

Tests used:
Assay type in all cases: cell-based
CFTR-G1349D = target: T1, CFTR-G1349D (Homo sapiens, UniProt P13569, G1349D); experiment: YFP-halide influx assay for the CFTR-G1349D
T1 construct: expressed in transfected cells
Excerpt: (§1) The YFP halide influx assay measured the functionality of the cystic fibrosis Transmembrane Conductance regulator (CFTR) channels. The assay was used to evaluate the capacity of compounds to increase the channel opening of existing mutant CFTR channels in the membrane. It makes use of the observation that the yellow fluorescent protein (YFP) variant YFP H148Q, I152L, F47L has its fluorescence substantially quenched by halide ions like Cl^− and I^− (Galietta, L. J. V., Haggie, P. M., Verkman, A. S., 2001. Green fluorescent protein-based halide indicators with improved chloride and iodide affinities. FEBS Lett. 499, 220-224. doi:10.1016/S0014-5793(01)02561-3).
(§2) For this purpose, HEK293-cells were seeded in 96 well plates. During seeding, the cells were reverse-transfected with plasmid vectors that direct the expression of the CFTR G551D mutant and of the YFP reporter. Cells were incubated at 37° C., 5% CO2 for 24 hours so as to allow for sufficient expression of the CFTR protein.
(§3) The I^−-induced quenching of fluorescence was recorded immediately after injection of I^− for 7 seconds. The capacity of a compound to increase the channel opening was directly correlated with the decrease in fluorescence, and was expressed as (1−(fluorescence after 7 seconds (F)/fluorescence before injection (F0))) and an EC50 was derived from a (1−F/F0) vs compound concentration plot.
(§4) Similar YHA assays were developed for other channel gating defective or channel conductance defective CFTR mutants to determine effect of compound on channel activity. Examples of mutants are G178R, G1349D, S549N, R117H, R334W. This assay is also used for additional class I CFTR mutants, including G542X, W1282X; class II mutants including N1303K, and for class III mutants including S1251N; or wild-type CFTR.

CFTR-G178R = target: T2, CFTR-G178R (Homo sapiens, UniProt P13569, G178R); experiment: YFP-halide influx assay for the CFTR-G178R
T2 construct: expressed in transfected cells
T2 sequence (P13569 whole entry G178R): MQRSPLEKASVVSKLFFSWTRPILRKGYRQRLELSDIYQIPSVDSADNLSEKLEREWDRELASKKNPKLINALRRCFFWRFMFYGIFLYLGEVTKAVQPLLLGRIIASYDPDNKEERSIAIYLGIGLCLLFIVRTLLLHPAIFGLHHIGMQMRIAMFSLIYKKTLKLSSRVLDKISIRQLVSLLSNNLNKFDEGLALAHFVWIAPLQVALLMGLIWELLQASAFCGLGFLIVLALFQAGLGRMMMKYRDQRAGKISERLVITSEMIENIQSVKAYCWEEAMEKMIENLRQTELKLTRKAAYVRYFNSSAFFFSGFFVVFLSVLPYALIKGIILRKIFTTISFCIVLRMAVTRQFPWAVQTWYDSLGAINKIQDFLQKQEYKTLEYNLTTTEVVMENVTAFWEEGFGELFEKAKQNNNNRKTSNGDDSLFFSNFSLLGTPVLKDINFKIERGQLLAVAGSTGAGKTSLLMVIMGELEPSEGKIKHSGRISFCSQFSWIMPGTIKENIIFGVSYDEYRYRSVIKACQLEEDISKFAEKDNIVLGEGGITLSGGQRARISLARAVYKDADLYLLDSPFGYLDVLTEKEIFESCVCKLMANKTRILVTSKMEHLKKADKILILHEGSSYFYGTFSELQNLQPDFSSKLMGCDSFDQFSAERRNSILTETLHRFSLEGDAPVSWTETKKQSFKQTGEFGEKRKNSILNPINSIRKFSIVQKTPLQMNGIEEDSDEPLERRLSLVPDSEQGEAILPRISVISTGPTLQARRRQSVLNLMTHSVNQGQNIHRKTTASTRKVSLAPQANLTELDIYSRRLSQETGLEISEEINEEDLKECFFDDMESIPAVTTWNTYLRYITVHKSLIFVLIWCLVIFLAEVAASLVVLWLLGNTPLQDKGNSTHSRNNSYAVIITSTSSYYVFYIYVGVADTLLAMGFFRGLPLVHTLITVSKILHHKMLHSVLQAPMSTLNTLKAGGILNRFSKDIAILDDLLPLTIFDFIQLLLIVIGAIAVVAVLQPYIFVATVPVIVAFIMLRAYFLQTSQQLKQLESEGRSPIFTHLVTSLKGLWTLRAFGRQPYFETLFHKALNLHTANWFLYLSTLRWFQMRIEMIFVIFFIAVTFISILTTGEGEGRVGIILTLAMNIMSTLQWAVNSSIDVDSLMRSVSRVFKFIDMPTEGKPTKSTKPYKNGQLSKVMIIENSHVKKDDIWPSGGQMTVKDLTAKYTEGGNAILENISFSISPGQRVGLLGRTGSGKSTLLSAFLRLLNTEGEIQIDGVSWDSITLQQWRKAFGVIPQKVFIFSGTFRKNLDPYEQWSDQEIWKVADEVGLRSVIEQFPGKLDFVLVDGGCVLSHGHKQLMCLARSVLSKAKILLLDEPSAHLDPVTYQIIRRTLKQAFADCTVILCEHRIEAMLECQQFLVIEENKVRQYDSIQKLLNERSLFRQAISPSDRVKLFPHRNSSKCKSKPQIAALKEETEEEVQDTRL
Excerpt: as §1, §2, §3, §4

CFTR G551D mutant = target: T3, CFTR G551D mutant (Homo sapiens, UniProt P13569, G551D); experiment: YFP-halide influx assay for the CFTR-G551D mutation (HEK293 cells); details: forskolin 10.67 μM
T3 construct: expressed in transfected cells; host or cells: HEK293 cells, reverse transfection with plasmids
T3 sequence (P13569 whole entry G551D): as the sequence (P13569 whole entry G178R) above, with R178G, G551D counted along it
How it was run: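 HEK293 cells reverse-transfected with CFTR G551D and halide-sensitive YFP (H148Q/I152L/F47L), expressed 24 h at 37 °C. YFP fluorescence quenching recorded for 7 s after I⁻ injection. Response = 1−F/F0; EC50 derived from 1−F/F0 vs compound concentration.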

CFTR-R117H = target: T4, CFTR-R117H (Homo sapiens, UniProt P13569, R117H); experiment: YFP-halide influx assay for the CFTR-R117H
T4 construct: expressed in transfected cells
T4 sequence (P13569 whole entry R117H): as the sequence (P13569 whole entry G178R) above, with R117H, R178G counted along it
Excerpt: as §1, §2, §3, §4

CFTR-S549N = target: T5, CFTR-S549N (Homo sapiens, UniProt P13569, S549N); experiment: YFP-halide influx assay for the CFTR-S549N; set-up: % Activation: concentration or dose not given beside the values
T5 construct: expressed in transfected cells
T5 sequence (P13569 whole entry S549N): as the sequence (P13569 whole entry G178R) above, with R178G, S549N counted along it
Excerpt: as §1, §2, §3, §4

CFTR ΔF508 mutant = target: T6, CFTR ΔF508 mutant (Homo sapiens, UniProt P13569, DEL508-508); experiment: YFP-halide influx assay for the CFTR-ΔF508 mutation (CFBE41o- cells); details: forskolin 10.67 μM; for EC50: from (1−F/F0) vs concentration plot
T6 construct: expressed in transfected cells; host or cells: CFBE41o- cells, adenoviral transduction
T6 sequence (P13569 with tags, fused parts or gaps DEL508-508): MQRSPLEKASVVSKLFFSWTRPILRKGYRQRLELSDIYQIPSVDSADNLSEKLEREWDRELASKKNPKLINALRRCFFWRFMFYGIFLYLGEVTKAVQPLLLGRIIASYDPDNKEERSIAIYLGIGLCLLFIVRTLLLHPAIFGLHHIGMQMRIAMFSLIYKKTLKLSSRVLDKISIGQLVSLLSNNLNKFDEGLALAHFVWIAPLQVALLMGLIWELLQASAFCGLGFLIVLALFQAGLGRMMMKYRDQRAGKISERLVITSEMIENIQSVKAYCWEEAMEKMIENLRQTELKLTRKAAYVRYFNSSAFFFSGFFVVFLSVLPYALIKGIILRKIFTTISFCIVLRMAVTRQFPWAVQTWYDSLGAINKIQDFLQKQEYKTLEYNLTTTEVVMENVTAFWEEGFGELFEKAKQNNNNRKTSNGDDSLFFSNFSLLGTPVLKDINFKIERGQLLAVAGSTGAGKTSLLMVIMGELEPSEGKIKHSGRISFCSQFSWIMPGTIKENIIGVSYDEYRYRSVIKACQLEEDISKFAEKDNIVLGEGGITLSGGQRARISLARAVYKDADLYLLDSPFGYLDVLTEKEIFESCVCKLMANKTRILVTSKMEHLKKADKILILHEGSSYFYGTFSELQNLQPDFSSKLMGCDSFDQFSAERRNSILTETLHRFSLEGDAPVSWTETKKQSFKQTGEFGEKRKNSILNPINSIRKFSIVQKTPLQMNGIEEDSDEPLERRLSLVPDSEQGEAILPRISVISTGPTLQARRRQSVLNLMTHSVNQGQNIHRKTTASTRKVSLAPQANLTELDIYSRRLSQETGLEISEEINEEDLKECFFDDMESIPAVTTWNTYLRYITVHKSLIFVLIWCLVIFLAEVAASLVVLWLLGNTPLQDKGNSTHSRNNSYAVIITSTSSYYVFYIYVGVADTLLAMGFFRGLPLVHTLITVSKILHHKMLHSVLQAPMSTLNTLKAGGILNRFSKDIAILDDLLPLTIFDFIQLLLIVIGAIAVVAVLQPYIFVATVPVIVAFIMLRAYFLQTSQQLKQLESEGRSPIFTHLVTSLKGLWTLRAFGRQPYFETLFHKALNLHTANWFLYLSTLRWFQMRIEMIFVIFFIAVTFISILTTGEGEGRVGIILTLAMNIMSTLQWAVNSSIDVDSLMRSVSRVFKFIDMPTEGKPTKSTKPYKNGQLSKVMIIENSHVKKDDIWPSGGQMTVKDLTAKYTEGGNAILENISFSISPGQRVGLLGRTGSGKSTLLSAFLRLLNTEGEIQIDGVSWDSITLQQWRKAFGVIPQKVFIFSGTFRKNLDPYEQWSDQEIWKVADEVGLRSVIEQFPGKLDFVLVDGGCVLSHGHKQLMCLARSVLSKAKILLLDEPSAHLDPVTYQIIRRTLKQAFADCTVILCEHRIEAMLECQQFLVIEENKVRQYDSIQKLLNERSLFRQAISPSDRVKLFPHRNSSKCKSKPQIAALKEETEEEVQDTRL
How it was run: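 CFBE41o- cells transduced with adenovirus expressing CFTR ΔF508 and halide-sensitive YFP H148Q/I152L/F47L, then held 24 h at 27° C or with a CFTR modulator 24 h at 37° C. Iodide-induced quench recorded 2 min; EC50 from (1−F/F0) at 36 s versus concentration.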

T1 sequence (P13569 whole entry G1349D): as the sequence (P13569 whole entry G178R) above, with R178G, G1349D counted along it

% Activation (CFTR-G1349D)	EC50 (CFTR-G1349D)	% Activation (CFTR-G178R)	EC50 (CFTR-G178R)	% Activation (CFTR G551D mutant)	EC50 (CFTR G551D mutant)	% Activation (CFTR-R117H)	EC50 (CFTR-R117H)	% Activation (CFTR-S549N)	EC50 (CFTR-S549N)	% Activation (CFTR ΔF508 mutant)	EC50 (CFTR ΔF508 mutant)	SMILES
97.6%	637 nM	–	–	81.9%	881 nM	107.0%	499 nM	–	–	98.1%	66.3 nM	COCC1(C)CN(C(=O)c2ncc(S(=O)(=O)c3ccc(OC(F)(F)F)cc3)cc2N)C1 [Compound 154, (3-amino-5-{[4-(trifluoromethoxy)phenyl]sulfonyl}pyridin-2-yl)[3-(methoxymethyl)-3-methylazetidin-1-yl]methanone]
84.8%	320 nM	–	–	64.6%	554 nM	89.9%	307 nM	–	–	101.0%	34.1 nM	Nc1cc(S(=O)(=O)c2ccc(OC(F)(F)F)cc2)cnc1C(=O)N1CC(OCC(F)F)C1 [Compound 119, (3-amino-5-{[4-(trifluoromethoxy)phenyl]sulfonyl}pyridin-2-yl)[3-(2,2-difluoroethoxy)azetidin-1-yl]methanone]
79.8%	149 nM	79.3%	109 nM	44.7%	242 nM	74.2%	155 nM	75.6%	92.1 nM	98.2%	5.5 nM	Nc1cc(S(=O)(=O)c2ccc(OC(F)(F)F)cc2)cnc1C(=O)Nc1cc[nH]n1 [Compound 291, 3-amino-N-(1H-pyrazol-3-yl)-5-{[4-(trifluoromethoxy)phenyl]sulfonyl}pyridine-2-carboxamide]
71.0%	1110 nM	84.5%	502 nM	65.9%	675 nM	103.0%	608 nM	90.7%	691 nM	117.0%	11.6 nM	Nc1cc(S(=O)(=O)c2ccc(C(F)(F)F)cc2)cnc1C(=O)NCC(F)(F)CO [Compound 241, 3-amino-N-(2,2-difluoro-3-hydroxypropyl)-5-{[4-(trifluoromethyl)phenyl]sulfonyl}pyridine-2-carboxamide]
55.4%	703 nM	–	–	78.3%	674 nM	77.6%	580 nM	–	–	93.9%	102 nM	CCC1(F)CN(C(=O)c2ncc(S(=O)(=O)c3ccc(OC(F)(F)F)cc3)cc2N)C1 [Compound 130, (3-amino-5-{[4-(trifluoromethoxy)phenyl]sulfonyl}pyridin-2-yl)(3-ethyl-3-fluoroazetidin-1-yl)methanone]

Continued, compound first:

SMILES	% Activation (CFTR-G1349D)	EC50 (CFTR-G1349D)	% Activation (CFTR-G178R)	EC50 (CFTR-G178R)	% Activation (CFTR G551D mutant)	EC50 (CFTR G551D mutant)	% Activation (CFTR-R117H)	EC50 (CFTR-R117H)	% Activation (CFTR-S549N)	EC50 (CFTR-S549N)	% Activation (CFTR ΔF508 mutant)	EC50 (CFTR ΔF508 mutant)
Nc1cc(S(=O)(=O)c2ccccc2OC(F)(F)F)cnc1C(=O)N1CC(F)(F)C1 [Compound 78, (3-amino-5-{[2-(trifluoromethoxy)phenyl]sulfonyl}pyridin-2-yl)(3,3-difluoroazetidin-1-yl)methanone]	85.36%	52.3 nM	73%	58.1 nM	55.9%	609 nM	89.74%	59.5 nM	80.37%	116 nM	123.0%	2.2 nM
CC1(O)CN(C(=O)c2ncc(S(=O)(=O)c3ccc(C(F)(F)F)cc3)cc2N)C1 [Compound 91, (3-amino-5-{[4-(trifluoromethyl)phenyl]sulfonyl}pyridin-2-yl) (3-hydroxy-3-methylazetidin-1-yl)methanone]	76.6%	738 nM	–	–	56.1%	810 nM	89.6%	326 nM	–	–	97.2%	11.5 nM
Nc1cc(S(=O)(=O)c2ccccc2OC(F)(F)F)cnc1C(=O)NCCO [Compound 75, 3-amino-N-(2-hydroxyethyl)-5-{[2-(trifluoromethoxy)phenyl]sulfonyl}pyridine-2-carboxamide]	98.7%	284 nM	94.3%	323 nM	68.5%	1510 nM	98.4%	472 nM	–	251 nM	121.0%	7.6 nM
CC(C)(C)C(O)CNC(=O)c1ncc(S(=O)(=O)c2ccc(OC(F)(F)F)cc2)cc1N (stereo not drawn) [Compound 16, 3-amino-N-(2-hydroxy-3,3-dimethylbutyl)-5-{[4-(trifluoromethoxy)phenyl]sulfonyl}pyridine-2-carboxamide]	99.6%	698 nM	102.0%	1010 nM	96.2%	1670 nM	112.0%	431 nM	114.0%	> 3330 nM	106.5%	15.7 nM
Nc1cc(S(=O)(=O)c2ccc(C(F)(F)F)cc2)cnc1C(=O)NC[C@@H](O)C(F)(F)F [Compound 63, 3-amino-N-[(2R)-3,3,3-trifluoro-2-hydroxypropyl]-5-{[4-(trifluoromethyl)phenyl]sulfonyl}pyridine-2-carboxamide]	82.8%	256 nM	–	–	60.8%	262 nM	89.3%	152 nM	–	–	102.0%	3.1 nM
CCOCC1(CNC(=O)c2ncc(S(=O)(=O)c3ccc(OC(F)(F)F)cc3)cc2N)CCC1 [Compound 118, 3-amino-N-{[1-(ethoxymethyl)cyclobutyl]methyl}-5-{[4-(trifluoromethoxy)phenyl]sulfonyl}pyridine-2-carboxamide]	99.5%	770 nM	–	–	49.5%	419 nM	90.7%	621 nM	–	–	93.2%	208 nM
CC(C)NC(=O)CNC(=O)c1ncc(S(=O)(=O)c2ccc(OC(F)(F)F)cc2)cc1N [Compound 57, 3-amino-N-[2-oxo-2-(propan-2-ylamino)ethyl]-5-{[4-(trifluoromethoxy)phenyl]sulfonyl}pyridine-2-carboxamide]	59.6%	457 nM	–	–	51.8%	385 nM	72.8%	356 nM	–	–	93.1%	7.1 nM
Nc1cc(S(=O)(=O)c2ccc(C(F)(F)F)cc2)cnc1C(=O)N1CC(F)(F)C1 [Compound 103, (3-amino-5-{[4-(trifluoromethyl)phenyl]sulfonyl}pyridin-2-yl)(3,3-difluoroazetidin-1-yl)methanone]	67.7%	448 nM	–	–	52.6%	368 nM	87.8%	351 nM	–	–	110.0%	26.2 nM
